Square brackets hold non-standard residues; d marks the D form. Peptide text beside a SMILES is read from it. ξ: configuration not given here. Oic(3aξ,7aξ) = O=C(O)[C@@H]1CC2CCCCC2N1; Tle = CC(C)(C)[C@H](N)C(=O)O; NMeNva = CCC[C@H](NC)C(=O)O; Ac5c = NC1(C(=O)O)CCCC1; Abu = CC[C@H](N)C(=O)O

One may read the inhibition as how much of the control response was suppressed.

For one assay, the target named is Amyloid-beta precursor protein (Homo sapiens) (UniProt P05067). As to the kind of experiment: Inhibition of amyloid beta (1 to 42) (unknown origin) assessed as reduction in peptide aggregation at 4 uM measured after 24 hrs by thioflavin-T fluorescence assay relative to control.
Sequence of Amyloid-beta precursor protein (Homo sapiens) (P05067 whole entry): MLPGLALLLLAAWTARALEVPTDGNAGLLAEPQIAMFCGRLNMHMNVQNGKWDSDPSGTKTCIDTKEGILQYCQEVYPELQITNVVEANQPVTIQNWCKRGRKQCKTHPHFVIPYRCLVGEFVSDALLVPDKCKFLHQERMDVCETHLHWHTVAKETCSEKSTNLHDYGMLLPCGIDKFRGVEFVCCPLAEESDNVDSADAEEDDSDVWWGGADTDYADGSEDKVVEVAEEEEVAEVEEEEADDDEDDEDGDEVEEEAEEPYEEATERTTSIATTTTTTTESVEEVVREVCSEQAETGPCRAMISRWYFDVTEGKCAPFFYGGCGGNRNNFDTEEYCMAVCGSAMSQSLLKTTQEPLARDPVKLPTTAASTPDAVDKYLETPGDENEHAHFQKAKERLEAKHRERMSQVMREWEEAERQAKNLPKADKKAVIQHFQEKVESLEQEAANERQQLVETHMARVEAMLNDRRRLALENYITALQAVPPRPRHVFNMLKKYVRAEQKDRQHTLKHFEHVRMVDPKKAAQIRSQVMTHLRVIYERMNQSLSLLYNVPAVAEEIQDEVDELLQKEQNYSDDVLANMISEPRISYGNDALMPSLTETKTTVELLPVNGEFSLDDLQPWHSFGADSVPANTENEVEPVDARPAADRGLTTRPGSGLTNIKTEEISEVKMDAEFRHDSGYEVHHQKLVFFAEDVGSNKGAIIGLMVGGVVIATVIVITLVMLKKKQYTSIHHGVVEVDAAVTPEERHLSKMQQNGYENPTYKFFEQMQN
Conditions: not given
Turning to `CCC[C@@H](C(=O)N[C@@H](C)C(=O)O)N(C)C(=O)[C@@H](NC(=O)[C@@H](N)C(C)C)C(C)C` (H-VV[NMeNva]A-OH), the inhibition is 34.9%.
The same measure, in the same setting: with `CC(C)[C@H](N)C(=O)N[C@H](C(=O)N1C2CCCCC2C[C@H]1C(=O)N[C@@H](C)C(=O)O)C(C)C` (stereo partly specified) (H-VV[Oic(3aξ,7aξ)]A-OH) the figure was 19.3%; with `CC(C)[C@H](N)C(=O)N[C@H](C(=O)N[C@H](C(=O)N[C@@H](C)C(=O)O)C(C)(C)C)C(C)C` (H-VV[Tle]A-OH), 0%; with `CC[C@H](NC(=O)[C@@H](N)C(C)C)C(=O)N[C@H](C(=O)N[C@@H](C)C(=O)O)[C@@H](C)CC` (H-V[Abu]IA-OH), 5.3%.
The same measure, in the same setting: with `CC[C@H](C)[C@H](NC(=O)C1(NC(=O)[C@@H](N)C(C)C)CCCC1)C(=O)N[C@@H](C)C(=O)O` (H-V[Ac5c]IA-OH) the figure was 100%; with `CC[C@H](C)[C@H](NC(=O)[C@@H](NC(=O)[C@@H](N)C(C)C)C(C)(C)C)C(=O)N[C@@H](C)C(=O)O` (H-V[Tle]IA-OH), 100%.

The target is the same in a further assay. Description: Inhibition of amyloid beta (1 to 42) (unknown origin) assessed as reduction in peptide aggregation at 2 uM measured after 24 hrs by thioflavin-T fluorescence assay relative to control.
Conditions: not given
For `CCC[C@@H](C(=O)N[C@@H](C)C(=O)O)N(C)C(=O)[C@@H](NC(=O)[C@@H](N)C(C)C)C(C)C` (H-VV[NMeNva]A-OH), the inhibition was 22.2%.
The same measure, in the same setting: the same measure for `CC(C)[C@H](N)C(=O)N[C@H](C(=O)N1C2CCCCC2C[C@H]1C(=O)N[C@@H](C)C(=O)O)C(C)C` (stereo partly specified) (H-VV[Oic(3aξ,7aξ)]A-OH): 37.2%; for `CC(C)[C@H](N)C(=O)N[C@H](C(=O)N[C@H](C(=O)N[C@@H](C)C(=O)O)C(C)(C)C)C(C)C` (H-VV[Tle]A-OH): 0%.
As for `CC[C@H](NC(=O)[C@@H](N)C(C)C)C(=O)N[C@H](C(=O)N[C@@H](C)C(=O)O)[C@@H](C)CC` (H-V[Abu]IA-OH), the inhibition stood at 0%.
Same read-out and setting: the same measure for `CC[C@H](C)[C@H](NC(=O)C1(NC(=O)[C@@H](N)C(C)C)CCCC1)C(=O)N[C@@H](C)C(=O)O` (H-V[Ac5c]IA-OH): 100%; for `CC[C@H](C)[C@H](NC(=O)[C@@H](NC(=O)[C@@H](N)C(C)C)C(C)(C)C)C(=O)N[C@@H](C)C(=O)O` (H-V[Tle]IA-OH): 100%.

The next assay concerns PC-12. Description: Neuroprotective activity against amyloid beta 42-induced toxicity in rat PC-12 cells assessed as cell viability at 4 uM measured after 6 hrs by MTT assay (reference value: 74.05%). The following applies: read-out: Activity. Format: functional. On the technique in general: Formazan colour is commonly taken as a measure of viable cells.
For the compound `CCC[C@@H](C(=O)N[C@@H](C)C(=O)O)N(C)C(=O)[C@@H](NC(=O)[C@@H](N)C(C)C)C(C)C` (H-VV[NMeNva]A-OH), the viability at 4 µM turned out to be 83.7%.
Same read-out and setting: with `CC(C)[C@H](N)C(=O)N[C@H](C(=O)N1C2CCCCC2C[C@H]1C(=O)N[C@@H](C)C(=O)O)C(C)C` (stereo partly specified) (H-VV[Oic(3aξ,7aξ)]A-OH) the figure was 78.4%.
`CC(C)[C@H](N)C(=O)N[C@H](C(=O)N[C@H](C(=O)N[C@@H](C)C(=O)O)C(C)(C)C)C(C)C` (H-VV[Tle]A-OH): the viability at 4 µM worked out at 69.2%.
Consider `CC[C@H](NC(=O)[C@@H](N)C(C)C)C(=O)N[C@H](C(=O)N[C@@H](C)C(=O)O)[C@@H](C)CC` (H-V[Abu]IA-OH), for which the viability at 4 µM amounted to 70.8%.
For `CC[C@H](C)[C@H](NC(=O)C1(NC(=O)[C@@H](N)C(C)C)CCCC1)C(=O)N[C@@H](C)C(=O)O` (H-V[Ac5c]IA-OH), the viability at 4 µM was found to be 97.1%.
In the case of `CC[C@H](C)[C@H](NC(=O)[C@@H](NC(=O)[C@@H](N)C(C)C)C(C)(C)C)C(=O)N[C@@H](C)C(=O)O` (H-V[Tle]IA-OH), the viability at 4 µM came to 91.3%.

In a further assay the target is Amyloid-beta precursor protein (Homo sapiens) (UniProt P05067). Description: Inhibition of amyloid beta (1 to 42) (unknown origin) assessed as reduction in peptide aggregation at 10 uM measured after 24 hrs by thioflavin-T fluorescence assay relative to control.
Conditions: not given
In the case of `CCC[C@@H](C(=O)N[C@@H](C)C(=O)O)N(C)C(=O)[C@@H](NC(=O)[C@@H](N)C(C)C)C(C)C` (H-VV[NMeNva]A-OH), the inhibition is 40.8%.
On to `CC(C)[C@H](N)C(=O)N[C@H](C(=O)N1C2CCCCC2C[C@H]1C(=O)N[C@@H](C)C(=O)O)C(C)C` (stereo partly specified) (H-VV[Oic(3aξ,7aξ)]A-OH), for which the inhibition was determined as 46.4%.
For the compound `CC(C)[C@H](N)C(=O)N[C@H](C(=O)N[C@H](C(=O)N[C@@H](C)C(=O)O)C(C)(C)C)C(C)C` (H-VV[Tle]A-OH), the inhibition worked out at 0%.
On the same count and under the same terms, the same measure for `CC[C@H](NC(=O)[C@@H](N)C(C)C)C(=O)N[C@H](C(=O)N[C@@H](C)C(=O)O)[C@@H](C)CC` (H-V[Abu]IA-OH): 24.1%; for `CC[C@H](C)[C@H](NC(=O)C1(NC(=O)[C@@H](N)C(C)C)CCCC1)C(=O)N[C@@H](C)C(=O)O` (H-V[Ac5c]IA-OH): 100%.
Turning to `CC[C@H](C)[C@H](NC(=O)[C@@H](NC(=O)[C@@H](N)C(C)C)C(C)(C)C)C(=O)N[C@@H](C)C(=O)O` (H-V[Tle]IA-OH), the inhibition was 100%.

The next assay concerns PC-12. As to the kind of experiment: Neuroprotective activity against amyloid beta 42-induced toxicity in rat PC-12 cells assessed as cell viability at 10 uM measured after 6 hrs by MTT assay (reference value: 74.05%). The assay is classed as functional. The following applies: read-out: Activity.
On to `CCC[C@@H](C(=O)N[C@@H](C)C(=O)O)N(C)C(=O)[C@@H](NC(=O)[C@@H](N)C(C)C)C(C)C` (H-VV[NMeNva]A-OH), for which the viability at 10 µM was 82.1%.
Turning to `CC(C)[C@H](N)C(=O)N[C@H](C(=O)N1C2CCCCC2C[C@H]1C(=O)N[C@@H](C)C(=O)O)C(C)C` (stereo partly specified) (H-VV[Oic(3aξ,7aξ)]A-OH), the viability at 10 µM came out at 86.1%.
In the case of `CC(C)[C@H](N)C(=O)N[C@H](C(=O)N[C@H](C(=O)N[C@@H](C)C(=O)O)C(C)(C)C)C(C)C` (H-VV[Tle]A-OH), the viability at 10 µM came to 82.7%.
The same measure, in the same setting: the same measure for `CC[C@H](NC(=O)[C@@H](N)C(C)C)C(=O)N[C@H](C(=O)N[C@@H](C)C(=O)O)[C@@H](C)CC` (H-V[Abu]IA-OH): 82.7%; for `CC[C@H](C)[C@H](NC(=O)C1(NC(=O)[C@@H](N)C(C)C)CCCC1)C(=O)N[C@@H](C)C(=O)O` (H-V[Ac5c]IA-OH): 100%.
For the compound `CC[C@H](C)[C@H](NC(=O)[C@@H](NC(=O)[C@@H](N)C(C)C)C(C)(C)C)C(=O)N[C@@H](C)C(=O)O` (H-V[Tle]IA-OH), the viability at 10 µM was 100%.

The next assay has as its system PC-12. As to the kind of experiment: Neuroprotective activity against amyloid beta 42-induced toxicity in rat PC-12 cells assessed as cell viability at 2 uM measured after 6 hrs by MTT assay (reference value: 74.05%). Format: functional. The following applies: read-out: Activity.
Take `CCC[C@@H](C(=O)N[C@@H](C)C(=O)O)N(C)C(=O)[C@@H](NC(=O)[C@@H](N)C(C)C)C(C)C` (H-VV[NMeNva]A-OH): the viability at 2 µM amounted to 87.3%.
Still for that read-out and setting: the same measure for `CC(C)[C@H](N)C(=O)N[C@H](C(=O)N1C2CCCCC2C[C@H]1C(=O)N[C@@H](C)C(=O)O)C(C)C` (stereo partly specified) (H-VV[Oic(3aξ,7aξ)]A-OH): 60%.
Same read-out and setting: with `CC(C)[C@H](N)C(=O)N[C@H](C(=O)N[C@H](C(=O)N[C@@H](C)C(=O)O)C(C)(C)C)C(C)C` (H-VV[Tle]A-OH) the figure was 78.1%; with `CC[C@H](NC(=O)[C@@H](N)C(C)C)C(=O)N[C@H](C(=O)N[C@@H](C)C(=O)O)[C@@H](C)CC` (H-V[Abu]IA-OH), 90.1%.
Still for that read-out and setting: with `CC[C@H](C)[C@H](NC(=O)C1(NC(=O)[C@@H](N)C(C)C)CCCC1)C(=O)N[C@@H](C)C(=O)O` (H-V[Ac5c]IA-OH) the figure was 89%; with `CC[C@H](C)[C@H](NC(=O)[C@@H](NC(=O)[C@@H](N)C(C)C)C(C)(C)C)C(=O)N[C@@H](C)C(=O)O` (H-V[Tle]IA-OH), 89.3%.
